Structures can show the parent of a compound that is named as a salt.
Target: T1, MASP-2 (CCP1-CCP2-SP) (Homo sapiens, UniProt O00187)
T1 construct: 15 μL of Enzyme MASP-2 (CCP1-CCP2-SP) in Assay Buffer
Test: Enzymatic Assay for MASP-2
Type: biochemical
Details: fluorogenic substrate based on C2 cleavage site, room temperature, 20 mM HEPES pH 7.4
Procedure, shortened: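 Fluorogenic substrate modelled on the C2 cleavage site, run at room temperature in 20 mM HEPES pH 7.4, 140 mM NaCl, 0.1% Tween 20; compounds were added from DMSO serial dilutions before enzyme and substrate. Reactions ran 20 min and were stopped with 0.1 M acetic acid before fluorescence was read. % activity was normalised to DMSO-only and no-enzyme controls; IC50 was taken as Ki, with tight- or slow-binding inhibitors handled separately.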

T1 sequence (O00187 445-686 limits assumed): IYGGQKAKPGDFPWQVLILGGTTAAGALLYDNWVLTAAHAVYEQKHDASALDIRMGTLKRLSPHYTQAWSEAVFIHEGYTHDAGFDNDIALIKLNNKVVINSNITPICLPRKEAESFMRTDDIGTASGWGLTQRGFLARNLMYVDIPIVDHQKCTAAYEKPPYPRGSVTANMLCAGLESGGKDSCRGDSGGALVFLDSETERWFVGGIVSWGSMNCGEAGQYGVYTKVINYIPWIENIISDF
T1 sequence (O00187 298-444 partner limits assumed): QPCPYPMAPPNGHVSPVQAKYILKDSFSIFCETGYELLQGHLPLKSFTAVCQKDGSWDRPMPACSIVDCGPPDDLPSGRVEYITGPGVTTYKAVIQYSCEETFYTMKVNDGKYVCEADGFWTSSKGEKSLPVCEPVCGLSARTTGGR

SMILES | Ki
COCCCCNc1ncc(-c2cnn(C)c2)n(CC(=O)NCc2cc3cnccc3[nH]2)c1=O [Compound 122, N-((1H-Pyrrolo[3,2-c]Pyridin-2-yl)Methyl)-2-(3-((4-Methoxybutyl)Amino)-6-(1-Methyl-1H-Pyrazol-4-yl)-2-Oxopyrazin-1(2H)-yl)Acetamide Trifluoroacetate] | < 0.5 µM
Cn1cc(-c2cnc(NCCc3ccccc3)c(=O)n2CC(=O)NCc2cc3cnccc3[nH]2)cn1 [Compound 101, N-((1H-Pyrrolo[3,2-c]pyridin-2-yl)methyl)-2-(6-(1-methyl-1H-pyrazol-4-yl)-2-oxo-3-(phenethylamino)pyrazin-1(2H)-yl)acetamide] | < 0.5 µM
Cc1ccc(C2(CNc3ncc(-c4ccccc4)n(CC(=O)NCc4cc5cnccc5[nH]4)c3=O)CC2)cc1 [Compound 63, N-((1H-Pyrrolo[3,2-c]pyridin-2-yl)methyl)-2-(2-oxo-6-phenyl-3-(((1-(p-tolyl)cyclopropyl)methyl)amino)pyrazin-1(2H)-yl)acetamide trifluoroacetate] | < 0.5 µM
Cn1c(CNC(=O)Cn2c(-c3ccccc3)cnc(NCCc3ccccc3)c2=O)cc2cnccc21 [Compound 46, N-((1-Methyl-1H-Pyrrolo[3,2-c]Pyridin-2-yl)Methyl)-2-(2-Oxo-3-(Phenethylamino)-6-Phenylpyrazin-1(2H)-yl)Acetamide Trifluoroacetate] | < 0.5 µM
Cn1cc(-c2cnc(NCC3(c4ccc(Cl)cc4)CC3)c(=O)n2CC(=O)NCc2cc3cnccc3[nH]2)cn1 [Compound 65, N-((1H-Pyrrolo[3,2-c]Pyridin-2-yl)Methyl)-2-(3-(((1-(4-Chlorophenyl)Cyclopropyl)Methyl)Amino)-6-(1-Methyl-1H-Pyrazol-4-yl)-2-Oxopyrazin-1(2H)-yl)Acetamide Trifluoroacetate] | < 0.5 µM
CNc1nc(Cl)c(-c2ccccc2)n(CC(=O)NCc2ccc(N)nc2C)c1=O [Compound 38] | 0.5 to 2.5 µM
Cc1nc(N)ccc1CNC(=O)Cn1c(-c2ccc[nH]2)cnc(NCCc2ccccc2)c1=O [Compound 22, N-((6-Amino-2-methylpyridin-3-yl)methyl)-2-(2-oxo-3-(phenethylamino)-6-(1H-pyrrol-2-yl)pyrazin-1(2H)-yl)acetamide] | < 0.5 µM
Cc1nc(N)ccc1CNC(=O)Cn1c(=O)c(NCCc2ccccc2)cn(C)c1=O [Compound 34, N-((6-Amino-2-Methylpyridin-3-yl)Methyl)-2-(3-Methyl-2,6-Dioxo-5-(Phenethylamino)-3,6-Dihydropyrimidin-1(2H)-yl)Acetamide] | < 0.5 µM
O=C(Cn1c(-c2cnn(C(F)F)c2)cnc(NCCc2ccccc2)c1=O)NCc1cc2cnccc2[nH]1 [Compound 113, N-((1H-Pyrrolo[3,2-c]pyridin-2-yl)methyl)-2-(6-(1-(difluoromethyl)-1H-pyrazol-4-yl)-2-oxo-3-(phenethylamino)pyrazin-1(2H)-yl)acetamide] | < 0.5 µM
Cc1ccccc1-c1cnc(NCCc2ccccc2)c(=O)n1CC(=O)NCc1cc2cnccc2[nH]1 [Compound 87, N-((1H-Pyrrolo[3,2-c]pyridin-2-yl)methyl)-2-(2-oxo-3-(phenethylamino)-6-(o-tolyl)pyrazin-1(2H)-yl)acetamide trifluoroacetate] | < 0.5 µM
COCCCNc1ncc(-c2ccccc2)n(CC(=O)NCc2cc3cnccc3[nH]2)c1=O [Compound 121, N-((1H-Pyrrolo[3,2-c]pyridin-2-yl)methyl)-2-(3-((3-methoxypropyl)amino)-2-oxo-6-phenylpyrazin-1(2H)-yl)acetamide trifluoroacetate] | < 0.5 µM
Cn1cc(-c2cnc(NCCc3ccccc3)c(=O)n2CC(=O)NCc2cc(Cl)c3[nH]cnc3c2)cn1 [Compound 130, N-((7-Chloro-1H-Benzo[d]Imidazol-5-yl)Methyl)-2-(6-(1-Methyl-1H-Pyrazol-4-yl)-2-Oxo-3-(Phenethylamino)Pyrazin-1(2H)-yl)Acetamide] | 2.5 to 10 µM
CC(C)(O)c1cccc(-c2cnc(NCCc3ccccc3)c(=O)n2CC(=O)NCc2cc3cnccc3[nH]2)c1 [Compound 92, N-((1H-Pyrrolo[3,2-c]pyridin-2-yl)methyl)-2-(6-(3-(2-hydroxypropan-2-yl)phenyl)-2-oxo-3-(phenethylamino)pyrazin-1(2H)-yl)acetamide] | < 0.5 µM
Cc1nc(N)ccc1CNC(=O)Cn1c(-c2ccc(CO)cc2)cnc(NCCc2ccccc2)c1=O [Compound 33] | < 0.5 µM
O=C(Cn1c(-c2ccccc2)cnc(NC2(c3ccccc3)COC2)c1=O)NCc1cc2cnccc2[nH]1 [Compound 51, N-((1H-Pyrrolo[3,2-c]pyridin-2-yl)methyl)-2-(2-oxo-6-phenyl-3-((3-phenyloxetan-3-yl)amino)pyrazin-1(2H)-yl)acetamide trifluoroacetate] | < 0.5 µM
Cc1ncc(NCCc2ccccc2)c(=O)n1CC(=O)NCc1ccc2nc(N)[nH]c2c1 [Compound 3, N-((2-Amino-1H-benzo[d]imidazol-6-yl)methyl)-2-(2-methyl-6-oxo-5-(phenethylamino)pyrimidin-1(6H)-yl)acetamide trifluoroacetate] | < 0.5 µM

SMILES | Ki
Nc1nc2ccc(CNC(=O)Cn3c(Br)cnc(NCCc4ccccc4)c3=O)cc2[nH]1 [Compound 8, N-((2-Amino-1H-Benzo[d]Imidazol-6-yl)Methyl)-2-(6-Bromo-2-Oxo-3-(Phenethylamino)Pyrazin-1(2H)-yl)Acetamide] | < 0.5 µM
Cn1cc(-c2cnc(NCCc3ccccc3)c(=O)n2CC(=O)NCc2cc3cnccc3o2)cn1 [Compound 132] | 0.5 to 2.5 µM
COc1ccc(CNc2ncc(-c3ccccc3)n(CC(=O)NCc3cc4cnccc4[nH]3)c2=O)cc1 [Compound 150, N-((1H-Pyrrolo[3,2-c]pyridin-2-yl)methyl)-2-(3-((4-methoxybenzyl)amino)-2-oxo-6-phenylpyrazin-1(2H)-yl)acetamide] | < 0.5 µM
Cc1cccc(CCNc2ncc(-c3ccccc3)n(CC(=O)NCc3cc4cnccc4[nH]3)c2=O)c1 [Compound 137, N-((1H-Pyrrolo[3,2-c]pyridin-2-yl)methyl)-2-(3-((3-methylphenethyl)amino)-2-oxo-6-phenylpyrazin-1(2H)-yl)acetamide] | < 0.5 µM
O=C(Cn1c(-c2ccccc2F)cnc(NCCc2ccccc2)c1=O)NCc1cc2cnccc2[nH]1 [Compound 86, N-((1H-Pyrrolo[3,2-c]Pyridin-2-yl)Methyl)-2-(6-(2-Fluorophenyl)-2-Oxo-3-(Phenethylamino)Pyrazin-1(2H)-yl)Acetamide Trifluoroacetate] | < 0.5 µM
Cn1cc(NCCc2ccccc2)c(=O)n(CC(=O)NCc2cc3cnccc3[nH]2)c1=O [Compound 161, N-((1H-Pyrrolo[3,2-c]Pyridin-2-yl)Methyl)-2-(3-Methyl-2,6-Dioxo-5-(Phenethylamino)-3,6-Dihydropyrimidin-1(2H)-yl)Acetamide] | < 0.5 µM
CS(=O)(=O)NCc1cccc(-c2cnc(NCCc3ccccc3)c(=O)n2CC(=O)NCc2cc3cnccc3[nH]2)c1 [Compound 95, N-((1H-Pyrrolo[3,2-c]Pyridin-2-yl)Methyl)-2-(6-(3-(Methylsulfonamidomethyl)Phenyl)-2-Oxo-3-(Phenethylamino)Pyrazin-1(2H)-yl)Acetamide] | < 0.5 µM
COC(=O)[C@H](Cc1ccc(O)cc1)Nc1ncc(-c2ccccc2)n(CC(=O)NCc2cc3cnccc3[nH]2)c1=O [Compound 163, Methyl (4-(2-(((1H-pyrrolo[3,2-c]pyridin-2-yl)methyl)amino)-2-oxoethyl)-3-oxo-5-phenyl-3,4-dihydropyrazin-2-yl)-L-tyrosinate trifluoroacetate] | < 0.5 µM
Cn1cc(-c2cnc(NCCc3ccccc3)c(=O)n2CC(=O)NCc2cnc3scc(Cl)c3c2)cn1 [Compound 82] | 2.5 to 10 µM
O=C(Cn1c(-c2ccccc2)cnc(NCc2ccc(Cl)cc2)c1=O)NCc1cc2cnccc2[nH]1 [Compound 73, N-((1H-Pyrrolo[3,2-c]pyridin-2-yl)methyl)-2-(3-((4-chlorobenzyl)amino)-2-oxo-6-phenylpyrazin-1(2H)-yl)acetamide trifluoroacetate] | < 0.5 µM
O=C(Cn1c(-c2ccccc2)cnc(NC2(c3ccccc3)CC2)c1=O)NCc1cc2cnccc2[nH]1 [Compound 66, N-((1H-Pyrrolo[3,2-c]pyridin-2-yl)methyl)-2-(2-oxo-6-phenyl-3-((1-phenylcyclopropyl)amino)pyrazin-1(2H)-yl)acetamide trifluoroacetate] | < 0.5 µM
Cc1nc(N)ccc1CNC(=O)Cn1c(C#Cc2ccccc2)cnc(NCCc2ccccc2)c1=O [Compound 26, N-((6-Amino-2-Methylpyridin-3-yl)Methyl)-2-(2-Oxo-3-(Phenethylamino)-6-(Phenylethynyl)Pyrazin-1(2H)-yl)Acetamide] | 0.5 to 2.5 µM
O=C(O)CNc1ncc(-c2ccccc2)n(CC(=O)NCc2cc3cnccc3[nH]2)c1=O [Compound 118, (4-(2-(((1H-Pyrrolo[3,2-c]Pyridin-2-yl)Methyl)Amino)-2-Oxoethyl)-3-Oxo-5-Phenyl-3,4-Dihydropyrazin-2-yl)Glycine Trifluoroacetate] | 0.5 to 2.5 µM
Cc1nc(N)ccc1CNC(=O)Cn1c(-c2cccc(CO)c2)cnc(NCCc2ccccc2)c1=O [Compound 32, N-((6-Amino-2-Methylpyridin-3-yl)Methyl)-2-(6-(3-(Hydroxymethyl)Phenyl)-2-Oxo-3-(Phenethyl Amino)Pyrazin-1(2H)-yl)Acetamide] | < 0.5 µM
O=C(Cn1c(-c2ccccc2)cnc(NCCc2ccccc2F)c1=O)NCc1cc2cnccc2[nH]1 [Compound 144, N-((1H-Pyrrolo[3,2-c]pyridin-2-yl)methyl)-2-(3-((2-fluorophenethyl)amino)-2-oxo-6-phenylpyrazin-1(2H)-yl)acetamide] | < 0.5 µM
Nc1nc2ccc(CNC(=O)Cn3c(-c4ccccc4)ncc(NCCc4ccccc4)c3=O)cc2[nH]1 [Compound 4, N-((2-Amino-1H-Benzo[d]Imidazol-6-yl)Methyl)-2-(6-Oxo-5-(Phenethylamino)-2-Phenylpyrimidin-1(6H)-yl)Acetamide, Trifluoroacetate] | < 0.5 µM

— patent US12110288B2, “MASP-2 inhibitors and methods of use” (Omeros Corporation, priority 2019, dated 2024)
